Patent US6555532B1, “Method of treating alopecia” (North Carolina State University, priority 1996, dated 2003)

Legend:
[1] = system: hair follicles of female CD-1 mice; test: Histological analysis of skin to determine the phase of the hair cycle; assay type: in vivo, mouse
Procedure: Female CD-1 mice, 4, 5, or 9 weeks of age, were purchased from Charles River Laboratories, Raleigh, N.C. Mice were kept in an animal facility at least 1 week prior to use and were fed rodent chow (Agway Food, Granville Milling and Co., Creedmoor, N.C.) and water ad libitum. The mice were kept on corn cob bedding and placed on a 12 hour light/dark cycle. Female CD-1 mice were clipped on the dorsal region (approximately 4×2.5 cm area) with electric clippers. The mice were then treated twice weekly on the clipped dorsal surface with either (a) 10 nmol 17-β-estradiol in 200 μl acetone or (b) acetone alone. For the studies with the estrogen receptor antagonist, ICI 182,780 was dissolved in acetone and 200 μl was topically applied twice weekly. […] To determine the effect of 17-β-estradiol on the hair follicle cycle, mice were treated with 17-β-estradiol or acetone alone twice weekly from the 4th week of age to the 15th week of age. Every week, histological analysis of the skin from 3 mice from each group was conducted to determine the phase of the hair cycle. Representative skin histology sections from acetone- and 17-β-estradiol-treated mice at 7, 9, and 11 weeks of age are shown in FIGS. 6A-6F. As expected, at 7 weeks of age all follicles were in telogen in both the 17-β-estradiol and the acetone-treated mice.

[2] = system: hair growth on clipped dorsal skin of female CD-1 mice; test: Hair regrowth on clipped dorsal skin of mice after twice-weekly topical treatment; assay type: in vivo, mouse; conditions: for effect on hair growth (figure legend): 10 nmol in 200 μL acetone applied topically to clipped hair area, mice; for mice demonstrating partial patchy hair regrowth: 10 nmol topically twice weekly from 6th week; for hair growth in pre-existing anagen follicles: 10 week old mice in anagen phase, twice weekly topical
Procedure: Female CD-1 mice, 4, 5, or 9 weeks of age, were purchased from Charles River Laboratories, Raleigh, N.C. Mice were kept in an animal facility at least 1 week prior to use and were fed rodent chow (Agway Food, Granville Milling and Co., Creedmoor, N.C.) and water ad libitum. The mice were kept on corn cob bedding and placed on a 12 hour light/dark cycle. Female CD-1 mice were clipped on the dorsal region (approximately 4×2.5 cm area) with electric clippers. The mice were then treated twice weekly on the clipped dorsal surface with either (a) 10 nmol 17-β-estradiol in 200 μl acetone or (b) acetone alone. For the studies with the estrogen receptor antagonist, ICI 182,780 was dissolved in acetone and 200 μl was topically applied twice weekly. Mice were treated with the estrogen receptor antagonist ICI 182,780 as provided in Example 1. Twice-weekly treatment of clipped dorsal skin was begun when the mice were 6 weeks of age, with either (a) 10 nmol ICI 182,780 in acetone or (b) acetone alone. […] In order to determine if 17-β-estradiol could influence hair growth, six week old CD-1 female mice were clipped on the dorsal surface with electric clippers and then treated twice weekly from the 6th week of age to the 16th week of age with topical applications of either (a) 10 nmol 17-β-estradiol or (b) acetone vehicle alone. […] In order to determine if 17-β-estradiol could block hair growth in pre-existing anagen follicles, 10 week old mice in the anagen phase of the hair cycle were treated twice weekly with 17-β-estradiol applied topically to clipped dorsal skin.

| Compound | hair follicle phase ([1]; 10 nmol ICI 182,780 twice weekly from 6 weeks, at 7 weeks of age, acetone mice in second telogen) | hair follicle phase ([1]; 10 nmol ICI 182,780 twice weekly from 6 weeks, at eleven weeks of age, control mice in mid to late anagen) | hair follicle phase ([1]; 10 nmol ICI 182,780 twice weekly from 6 weeks, by eight weeks of age, acetone mice in telogen) | effect on duration of anagen ([1]; conclusion from histology at eleven weeks of age) | effect on hair growth (figure legend) [2] | mice demonstrating full hair regrowth ([2]; 10 nmol in acetone topically twice weekly from 6 weeks of age, by 9 weeks of age, no hair growth in acetone-treated mice) [%] | mice that developed a full coat of hair ([2]; 10 nmol in acetone topically twice weekly from 6 weeks of age, by 10 weeks of age, 40% of acetone-treated mice) | hair follicle phase ([1]; 17-β-estradiol twice weekly from 4th week of age, 15 weeks of age, termination of experiment) | hair follicle phase ([1]; 17-β-estradiol twice weekly from 4th week of age, at 7 weeks of age, acetone mice also in telogen) | hair follicle phase ([1]; 17-β-estradiol twice weekly from 4th week of age, by 9 weeks of age, acetone mice entered anagen) | hair follicle phase ([1]; 17-β-estradiol twice weekly from 4th week of age, by 11 weeks of age, acetone mice in mid to late anagen) | effect on dorsal hair regrowth ([2]; 10 nmol topically twice weekly from 6th to 16th week of age) | full hair regrowth ([2]; 10 nmol topically twice weekly from 6th to 16th week of age, by 16 weeks of age, 100% of acetone mice regrown by 13 weeks) | partial patchy hair regrowth, share of total clipped area ([2]; 10 nmol topically twice weekly from 6th to 16th week of age, some of the treated mice) | mice demonstrating partial patchy hair regrowth ([2]; at 12 weeks of age) [%] | mice demonstrating partial patchy hair regrowth ([2]; by 15 weeks) [%] | hair growth in pre-existing anagen follicles ([2]; treatment continued for 10 weeks) | hair growth in pre-existing anagen follicles ([2]; within two weeks, all acetone mice developed full coat) |
| --- | --- | --- | --- | --- | --- | --- | --- | --- | --- | --- | --- | --- | --- | --- | --- | --- | --- | --- |
| C[C@]12CC[C@@H]3c4ccc(O)cc4C[C@@H](CCCCCCCCC[S+]([O-])CCCC(F)(F)C(F)(F)F)[C@H]3[C@@H]1CC[C@@H]2O (stereo partly drawn) [ICI 182,780, 7α-[9-(4,4,5,5,5,-pentafluoropentylsulfinyl)nonyl]estra-1,3,5(10)-triene-3,17β-diol] | early to mid anagen | entered telogen | mid to late anagen | does not prolong anagen | causes hair growth during the second telogen phase | 60 | all | – | – | – | – | – | – | – | – | – | – | – |
| C[C@]12CC[C@@H]3c4ccc(O)cc4CC[C@H]3[C@@H]1CC[C@@H]2O [17-β-estradiol] | – | – | – | – | blocks hair regrowth | – | – | still arrested in telogen | telogen | remained in telogen | remained in telogen | potent inhibitory effect | did not demonstrate any full hair regrowth | less than 10% | 20 | 40 | no hair growth was apparent | no longer growing hair |
